Results reported in patent US6379713B1, “Method of treating an itch with iodine” (priority 2001, dated 2002).

Assays:
[1] = system: itch; settings: cited from earlier work; for time necessary to stop the immediate itch: topical application
[2] = system: itching skin; assay: rubbing iodine condensate on cotton fiber against itching skin; assay type: in vivo, mammal
Procedure: A concentration of iodine in the range of 0.01 to 2 mg/inch^2 of skin surface is found to provide analgesia. An applicator useful for carrying and discharging the analgesic element, in its amorphous form, has been made by loading cotton fiber over a bed of hard iodine crystals sitting at the bottom of a fuming chamber. The bottom of the fiber stack is placed in contact to the top of the iodine bed. By warming the crystals, the reservoir fiber is charged with a fine, soft, rising tan colored sublimate of the hard crystal. At a temperature of 35.deg.C., 2 days is sufficient to charge a fiber with sublimated iodine in a range, by weight, of 1 to 30 mg/g of the wipe fiber. The charged fiber has a tan color, appearing as of having been dipped in liquid iodophor and then dried. Individual crystals of iodine are not readily observed and the charged wipe feels softer than the original fiber. On dipping the charged fiber in water, its tan coloration disappears.
Itching skin is found to be efficiently treated by rubbing the cotton fiber coated with condensed iodine against the itch.
The skin is not irritated by treatment from a wipe preferably comprising about 10 mg of condensate per gram of fiber comprising cotton. […] A preferred treatment supplies about 0.05 to 1 mg/inch^2 of skin. An iodine concentration of over 2 mg/inch^2 of skin begins to cause pain, while still relieving the itch.

## CCOC(=O)c1ccc(N)cc1 [benzocaine]
[1]
  time necessary to stop the immediate itch: ≤ 5 min

## CN(C)CCOC(c1ccccc1)c1ccccc1 [diphenhydramine]
[1]
  time necessary to stop the immediate itch: about 15 minutes

## COC1=CC(=O)C[C@@H](C)[C@]12Oc1c(Cl)c(OC)cc(OC)c1C2=O [griseofulvin]
[1]; antibiotic composition
  time necessary to stop the immediate itch (time to disinfect): several days

## CC(=O)OCC(=O)[C@@]1(O)CC[C@H]2[C@@H]3CCC4=CC(=O)CC[C@]4(C)[C@H]3[C@@H](O)C[C@@]21C [hydrocortisone acetate]
[1]
  time necessary to stop the immediate itch: about 15 minutes

## II [iodine]
[2]; amorphous tan condensate, single treatment
  time to relief from an itch after application: ≤ 1 min
[2]; cotton fiber coated with condensed iodine, rubbed in forceful back and forth motion
  time to relieve the urge to scratch after application: within three minutes
[2]; while still relieving the itch
  iodine concentration on skin that begins to cause pain: over 2 mg/inch^2
[2]; wipe with about 10 mg of condensate per gram of cotton fiber
  skin irritation: not irritated
